Literature values as cited in patent publication US12176074B2, “Compound function prediction method based on neural network and connectivity map algorithm” (BEIJING GIGACEUTICALS TECH. CO. LTD, priority 2021, dated 2024).

Tested on: novel coronavirus (SARS-CoV-2)
Details: specific data in Chinese patent application 202010309486.2; read-out: EC50, effect for fighting against the novel coronavirus

O=C1C[C@@H](c2ccc(O[C@@H]3O[C@H](CO)[C@@H](O)[C@H](O)[C@H]3O)cc2)Oc2cc(O)ccc21 [liquiritin]
EC50: 2390 nM
